From publication PMC8253220, “Molecular design, synthesis and in vitro biological evaluation of thienopyrimidine–hydroxamic acids as chimeric kinase HDAC inhibitors: a challenging approach to combat cancer” (Journal of Enzyme Inhibition and Medicinal Chemistry, 2021)
Values joined by “and” are separate entries in the source; they are usually repeats but may differ in a detail not shown here. Equal entries are not always repeated.

How the values were obtained:
Hela nuclear extracts = assay: Hela nuclear extract HDAC inhibitor assay (BPS Bioscience); type: biochemical; settings: 10 µM
Method: The purpose of the study is to determine the effects of twenty compounds from Misr International University on the enzymatic activities of hela nuclear extracts using an in vitro […]
7a Solution 10mM DMSO 10 10 % DMSO in
7b Solution 10mM DMSO 10 10 % DMSO in
7d Solution 10mM DMSO 10 10 % DMSO in
2.3 Experimental Conditions
2.3.1 Enzymes and Substrates
Assay Catalog # Substrate
Hela Nuclear Exctract 50053 10 µM HDAC Substrate 3
For the hela nuclear extracts, hela cells were grown to 90 % confluency. Hela nuclear extracts were prepared from the Nuclear Extraction Kit from abcam (Catalog # ab113474). The final total protein concentration was calculated to be 2.4 µg/µl. From this, the hela nuclear extracts was diluted 20-fold in HDAC assay buffer and 5 µl of the dilution was added to a 50 µl reaction.
The compounds are dissolved in DMSO. A series of dilutions of the compounds were prepared with 10% DMSO in HDAC assay buffer and 5 µl of the dilution was added to a 50 µl reaction so that the final concentration of DMSO is 1 % in all of […]
The enzymatic reactions for the hela nuclear extract were conducted in duplicate at 37 °C for 60 minutes in a 50 µl mixture containing HDAC assay buffer, 5 µg BSA, an HDAC substrate (see 2.3.1), hela nuclear extract, and a test compound (see 2.2).
After enzymatic reactions, 50μl of 2 x HDAC Developer was added to each well for the hela nuclear extract and the plate was incubated at room temperature for an additional 15 […]
Fluorescence intensity was measured at an excitation of 360 nm and an emission of 460 nm using a Tecan Infinite M1000 microplate reader.
Hela nuclear extract activity assays were performed in duplicates at each concentration.
The fluorescent intensity data were analyzed using the computer software, Graphpad Prism. In the absence of the compound, the fluorescent intensity (Ft) in each data set was defined as 100% activity. In the absence of hela nuclear extract, the fluorescent intensity (Fb) in each data set was defined as 0% activity. The percent activity in the presence of each compound was calculated according to the following equation: %activity = (F-Fb)/(Ft-Fb), where F= the fluorescent intensity in the presence of the compound.
The values of percentage activity were plotted on a bar graph.

EGFR = EGFR (Homo sapiens, UniProt P00533); assay: In vitro EGFR tyrosine kinase inhibitory assay (Z'-LYTE, SelectScreen); type: biochemical; settings: 10 µM single dose
Chain of EGFR (P00533 25-1210): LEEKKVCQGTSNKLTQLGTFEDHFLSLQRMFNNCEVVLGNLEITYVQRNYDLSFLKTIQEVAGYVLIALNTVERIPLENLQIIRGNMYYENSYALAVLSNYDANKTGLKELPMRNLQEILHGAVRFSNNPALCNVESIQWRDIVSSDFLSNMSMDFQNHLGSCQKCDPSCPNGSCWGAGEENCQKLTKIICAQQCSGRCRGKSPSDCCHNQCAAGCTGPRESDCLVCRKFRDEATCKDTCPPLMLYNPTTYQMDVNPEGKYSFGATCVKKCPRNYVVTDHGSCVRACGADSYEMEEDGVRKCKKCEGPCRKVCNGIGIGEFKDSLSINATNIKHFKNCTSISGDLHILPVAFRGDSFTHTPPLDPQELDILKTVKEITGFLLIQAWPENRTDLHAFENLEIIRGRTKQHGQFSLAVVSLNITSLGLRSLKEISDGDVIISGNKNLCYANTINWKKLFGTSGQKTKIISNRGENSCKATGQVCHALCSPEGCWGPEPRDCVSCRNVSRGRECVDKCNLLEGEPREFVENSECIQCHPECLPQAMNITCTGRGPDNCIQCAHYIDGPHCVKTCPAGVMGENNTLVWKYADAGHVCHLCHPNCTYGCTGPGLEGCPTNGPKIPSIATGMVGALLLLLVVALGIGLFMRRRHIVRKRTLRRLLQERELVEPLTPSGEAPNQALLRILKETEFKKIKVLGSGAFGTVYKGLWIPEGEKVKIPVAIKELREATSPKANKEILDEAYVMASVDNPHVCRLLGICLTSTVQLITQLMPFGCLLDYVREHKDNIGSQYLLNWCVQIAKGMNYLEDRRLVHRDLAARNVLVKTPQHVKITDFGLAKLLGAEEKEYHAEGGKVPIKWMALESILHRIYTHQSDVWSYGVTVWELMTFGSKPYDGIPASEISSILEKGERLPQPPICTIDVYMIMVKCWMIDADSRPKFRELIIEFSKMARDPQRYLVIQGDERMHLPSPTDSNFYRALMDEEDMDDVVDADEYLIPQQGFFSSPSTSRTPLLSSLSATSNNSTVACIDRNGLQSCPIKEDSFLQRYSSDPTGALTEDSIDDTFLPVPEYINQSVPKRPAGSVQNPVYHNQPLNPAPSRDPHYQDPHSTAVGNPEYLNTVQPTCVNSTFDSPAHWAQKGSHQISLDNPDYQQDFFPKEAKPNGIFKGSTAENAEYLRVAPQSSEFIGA
Method: The target compounds were evaluated for their in vitro inhibitory activities against EGFR, VEGFR-2, and HDAC6. The EGFR and VEGFR-2 inhibitory assays were performed at Thermo Fischer Scientific, Madison, WI, USA (SelectScreenServices@thermofisher.com). The HDAC inhibitory assays were performed at BPS Bioscience, San Diego, CA, USA (www.bpsbioscience.com). Initially, all of the synthesised target compounds were evaluated for their percent inhibitory activity against EGFR, VEGFR-2, and HDACs at 10 µM single dose concentration, in which their mean percent inhibition is summarised in (Figure 5, Tables 1 and [2]). Representative compounds were evaluated for their percent inhibitory activity against EGFR and VEGFR-2 at 6 different concentrations (0.1 nM, 1 nM, 10 nM, 100 nM, 1 µM, 10 µM) to subsequently calculate their IC50 values (Table 3). Additionally, all of the synthesised target compounds were submitted to the National Cancer Institute “NCI” Bethesda, Maryland, USA (www.dtp.nci.nih.gov), to evaluate theirs in vitro antiproliferative activities against NCI 60- cancer cell line panel.
In vitro enzyme inhibition determination for the synthesised compounds was carried out in Thermo Fischer Scientific, Madison, WI, USA (SelectScreenServices@thermofisher.com). The EGFR and VEGFR-2 tyrosine kinase % inhibitory activity at a single-dose concentration of 10 µM was performed initially then representative compounds were evaluated at single-dose concentrations of (0.1 nM, 1 nM, 10 nM, 100 nM, 1 µM) using ZYLTE technology. A fluorescence-based, coupled-enzyme format is employed in the biochemical assay and depends on the sensitivity of proteolytic cleavage to non-phosphorylated and phosphorylated peptides. Then IC50 values for selected compounds were determined by GraphPad Prism at Misr international university.

A549/ATCC = assay: NCI one-dose screen; type: cell-based, human; settings: NSCLC A549/ATCC, 10 µM single dose
Method: (§1) All of the synthesised structures were selected and submitted to NCI based on computer modelling techniques and the degree of diversity of structures for the evaluation of their antiproliferative activity. The 20 synthesised compounds were selected with their respective NCI codes [NCS D-820157- NCS D-820176] for the inhibition percent assay at an initial single dose of 10 μM on the full NCI 60 cell panel, where the mean graph of the percent growth for all compounds on the full NCI cell panel is evaluated, compared to the untreated control cells (Supplementary Material). In vitro cell line inhibition % of all synthesised compounds is represented in (Table 1 of Supplementary Material).
(§2) All of the synthesised compounds (20) were submitted to NCI and selected for in vitro anticancer assay against a panel of 60 cancer cell lines. The methodology of assay and calculations is as reported.

MALME-3M = assay: NCI one-dose screen; type: cell-based, human; settings: Melanoma MALME-3M, 10 µM single dose
Method: as §1, §2

SN12C = assay: NCI one-dose screen; type: cell-based, human; settings: Renal SN12C, 10 µM single dose
Method: as §1, §2

SR = assay: NCI one-dose screen; type: cell-based, human; settings: Leukemia SR, 10 µM single dose
Method: as §1, §2

HS 578T = assay: NCI one-dose screen; type: cell-based, human; settings: Breast HS 578T, 10 µM single dose
Method: as §1, §2

SF-295 = assay: NCI one-dose screen; type: cell-based, human; settings: CNS SF-295, 10 µM single dose
Method: as §1, §2

UACC-62 = assay: NCI one-dose screen; type: cell-based, human; settings: Melanoma UACC-62, 10 µM single dose
Method: as §1, §2

OVCAR-8 = assay: NCI one-dose screen; type: cell-based, human; settings: Ovarian OVCAR-8, 10 µM single dose
Method: as §1, §2

HOP-92 = assay: NCI one-dose screen; type: cell-based, human; settings: NSCLC HOP-92, 10 µM single dose
Method: as §1, §2

MDA-MB-435 = assay: NCI one-dose screen; type: cell-based, human; settings: Melanoma MDA-MB-435, 10 µM single dose
Method: as §1, §2

T-47D = assay: NCI one-dose screen; type: cell-based, human; settings: Breast T-47D, 10 µM single dose
Method: as §1, §2

MOLT-4 = assay: NCI one-dose screen; type: cell-based, human; settings: for Growth Percent: Leukemia MOLT-4, 10 µM single dose
Method: as §1, §2

Compound	% Inhibition Hela Nuclear Extracts (Hela nuclear extracts) [%]	inhibition at 10 µM (EGFR) [%]	Growth Percent (A549/ATCC)	Growth Percent (MALME-3M)	Growth Percent (SN12C)	Growth Percent (SR)	Growth Percent (HS 578T)	Growth Percent (SF-295)	Growth Percent (UACC-62)	Growth Percent (OVCAR-8)	Growth Percent (HOP-92)	Growth Percent (MDA-MB-435)	Growth Percent (T-47D)	Growth Percent (MOLT-4)	inhibition at 10 µM (MOLT-4; Homo sapiens, leukaemia MOLT-4, 10 μM) [%]
Cc1c(C(=O)NO)sc2ncnc(Nc3ccc(NC(=O)Nc4ccccc4)cc3)c12 [Compound 7a, 1–(4-(6-(hydroxycarbamoyl)-5-methylthieno[2,3-d]pyrimidin-4-ylamino)phenyl)-3-phenylurea]	2	48	103.8% and 103.82%	89.5% and 89.51%	102.8% and 102.86%	99.1% and 99.16%	97.7% and 97.71%	96.2% and 96.23%	101.7% and 101.73%	106.3% and 106.33%	117.3% and 117.36%	102.0% and 102.09%	95.7% and 95.72%	103.9% and 103.94%	
COc1cccc(NC(=O)Nc2ccc(Nc3ncnc4sc(C(=O)NO)c(C)c34)cc2)c1 [Compound 7b, 1–(4-(6-(hydroxycarbamoyl)-5-methylthieno[2,3-d]pyrimidin-4-ylamino)phenyl)-3–(3-methoxyphenyl)urea]	2	39	101.8% and 101.81%	101.9% and 101.92%	99.1% and 99.12%	115.8% and 115.82%	102.4% and 102.45%	94.5% and 94.51%	96.7% and 96.74%	96.6% and 96.69%	108.4% and 108.42%	101.5% and 101.59%	99.6% and 99.67%	112.4% and 112.45%	
Cc1c(C(=O)NO)sc2ncnc(Nc3ccc(NC(=O)Nc4cccc(C(F)(F)F)c4)cc3)c12 [Compound 7c, 1–(4-(6-(hydroxycarbamoyl)-5-methylthieno[2,3-d]pyrimidin-4-ylamino)phenyl)-3–(3-(trifluoromethyl)phenyl)urea]	3	11	100.4% and 100.47%	105.0% and 105.06%	97.89%	94.0% and 94.07%	90.3% and 90.32%	95.1% and 95.16%	96.4%	100.4% and 100.41%	119.3% and 119.39%	100.6% and 100.67%	96.3% and 96.39%	88.2% and 88.24%	11.8
Cc1c(C(=O)NO)sc2ncnc(Nc3ccc(NC(=S)Nc4ccccc4)cc3)c12 [Compound 7d, 1–(4-(6-(hydroxycarbamoyl)-5-methylthieno[2,3-d]pyrimidin-4-ylamino)phenyl)-3-phenylthiourea]	3	78	101.3% and 101.33%	99.4% and 99.48%	100.8% and 100.86%	110.3% and 110.34%	104.5% and 104.57%	98.3% and 98.32%	94.9% and 94.97%	103.1%	114.8% and 114.88%	101.3% and 101.34%	112.9% and 112.91%	111.3% and 111.35%	
Cc1c(C(=O)NCCC(=O)NO)sc2ncnc(Nc3ccc(NC(=O)Nc4ccccc4)cc3)c12 [Compound 11a, 1–(4-(6-((3-(hydroxyamino)-3-oxopropyl)carbamoyl)-5-methylthieno[2,3-d]pyrimidin-4-ylamino)phenyl)-3-phenylurea]	0	12	97.7% and 97.77%	103.6% and 103.62%	101.4% and 101.42%	108.7% and 108.77%	99.6% and 99.62%	95.2% and 95.29%	98.7% and 98.79%	101.0% and 101.03%	106.7% and 106.72%	102.2% and 102.21%	107.7% and 107.73%	110.5% and 110.52%	
COc1cccc(NC(=O)Nc2ccc(Nc3ncnc4sc(C(=O)NCCC(=O)NO)c(C)c34)cc2)c1 [Compound 11b, 1–(4-(6-((3-(hydroxyamino)-3-oxopropyl)carbamoyl)-5-methylthieno[2,3-d]pyrimidin-4-ylamino)phenyl)-3–(3-methoxyphenyl)urea]	4	5	96.2% and 96.21%	107.0% and 107.03%	105.1% and 105.11%	112.2% and 112.27%	100.7%	100.0% and 100.08%	95.3% and 95.33%	99.2% and 99.26%	119.1% and 119.18%	100.8% and 100.85%	100.1%	107.2% and 107.22%	
